Patent publication US6617439B1, “C8-substituted purine nucleotide analogs” (Bar-Ilan University, priority 2000, dated 2003)
“Also recorded” adds a separate entry of the source. Values belong to the compound of their own block, whether it stands above or below them.

Experiments:
NTPDase [1] = biological target: T1, NTPDase (Bos taurus, UniProt O18956); assay: Resistance to hydrolysis by NTPDase (malachite green phosphate release); format: biochemical, bovine; set-up: To reduce potential artifacts resulting from the solubilisation of NTPDase by detergents, a particulate fraction (prepared as described above) was used; from tissue; host or cells: bovine spleen particulate fraction; details: 100 μM analog, 37° C., 7 min, 1.9 μg protein
T1 sequence (O18956 1-513): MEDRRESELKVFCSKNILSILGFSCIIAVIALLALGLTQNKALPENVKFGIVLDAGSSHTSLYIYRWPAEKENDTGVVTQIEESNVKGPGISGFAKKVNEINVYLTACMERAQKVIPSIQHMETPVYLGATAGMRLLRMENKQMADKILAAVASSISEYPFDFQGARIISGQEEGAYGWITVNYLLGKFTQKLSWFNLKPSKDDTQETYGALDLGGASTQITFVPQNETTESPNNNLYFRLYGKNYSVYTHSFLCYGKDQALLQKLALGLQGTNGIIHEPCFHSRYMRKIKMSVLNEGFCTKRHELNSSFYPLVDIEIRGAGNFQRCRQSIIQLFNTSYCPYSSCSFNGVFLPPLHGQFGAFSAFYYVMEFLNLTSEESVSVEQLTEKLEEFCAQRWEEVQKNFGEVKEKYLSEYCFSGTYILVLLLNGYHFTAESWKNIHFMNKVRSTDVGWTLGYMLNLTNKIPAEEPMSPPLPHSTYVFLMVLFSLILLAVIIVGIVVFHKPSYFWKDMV
Experimental: Isolation of particulate fractions. Experiments were carried out with a particulate fraction obtained from bovine spleen according to the method of Sévigny et al. (37). Briefly, bovine spleens were cut in small pieces and homogenized (15-20%) with a Polytron in Tris-saline buffer supplemented with SBTI and PMSF as protease inhibitors. After filtration with cheesecloth and centrifugation at 600 g the supernatant is centrifuged at 22,000 g for 90 min, and the resulting pellet is suspended in bicarbonate buffer and loaded on a sucrose cushion (40%) and centrifuged for two hours at 100,000 g. The fraction floating on the cushion is harvested in five volumes of bicarbonate buffer. The pellet is suspended in Tris buffer/glycerol 7.5% and kept at −20° C.
(§1) NTPDase assays. Enzyme activity was routinely measured by the release of inorganic phosphorus with the malachite green colorimetric assay (61). Resistance to hydrolysis was measured at 37° C. in 1 ml of the following incubation medium: 8 mM CaCl2, 5 mM tetramisole, 50 mM Tris base, 50 mM imidazole, buffered at pH 7.6, and 100 μM of either ATP or its analogs. […] In both cases the reaction was started by the addition of 1.9 μg of the enzyme preparation and stopped after 7 min with 250 μL of the malachite green reagent. […] Reactions were performed in the same incubation buffer, as previously described and were started by the addition of non-saturating ATP concentrations. Protein concentration was determined with the Bradford microplate assay using bovine serum albumin as a standard of reference (62).
To reduce potential artifacts resulting from the solubilisation of NTPDase by detergents, a particulate fraction (prepared as described above) was used. […] Also, possible alkaline phosphatase activity was inhibited by tetramisole added to the assays.

P2X-purinoceptor = assay: P2X-receptor assay, endothelium-denuded mesenteric bed; set-up: species or system guinea pig; details: for P2X-R effect: variation of perfusion pressure: bolus 0.1-1000 pmol, denuded mesenteric bed precontracted with noradrenaline
Experimental: (§2) Surgical Procedures. Dunkin-Hartley guinea pigs (300-350 g) of either sex were sacrificed by cerival dislocation according to the Canadian Council on Aminal Care. The guinea pig mesentery was prepared as described by Berthiaume et al (63). […] To isolate the mesenteric bed from the intestine, the mesentery was perfused (2 ml/min, for 5 min) via the mesenteric artery with a Krebs solution containing heparin (100 U/ml). The mesentery was then separated by cutting close to the intestine. A resting period of 60 min was then allowed during which the guinea pig mesenteric bed was perfused (2 ml/min) with a warmed (37° C.) and gassed Krebs solution (95% O2 and 5% CO2) containing indomethacin (5 μM), as described earlier. In all the assays, perfusion pressure was increased to obtain a flow rate of 6 ml min^−1. Response of mesenteric bed, precontracted with noradrenaline (200 μM) in 0.9% saline solution, to the different drugs, was measured with a pressure transducer (Statham, model P-23AC) and recorded on a Grass physiograph (model 79D).
P2X-receptor assays. Guinea pig mesenteric bed was denuded from its endothelium layer by using 20 mM of CHAPS in PBS (63). Briefly, the CHAPS solution was infused for 45 sec, followed by a resting period of 30 min. Finally a second 45 sec infusion of 20 mM CHAPS was carried out. Blood vessels were then precontracted as earlier described. The efficiency of the endothelium removal technique was assessed by an intra-arterial bolus injection of 100 pmol of NK-1 in PBS. Reactivity of the media layer was confirmed by bolus injection of 3 nmol of NaNP (sodium nitroprussiate) in PBS. […] Variation of perfusion pressure were measured. Between each injection of 8-BuS-ATP a resting period was allowed to allow the return of pressure to baseline (i.e. precontracted pressure).

P2Y1 receptor = details: cited from earlier work
P2Y-purinoceptor = assay: P2Y-receptor assay, intact mesenteric bed, ATP-induced vasodilation; set-up: species or system guinea pig; details: 7 μM infusion, ATP 0.1-10000 pmol
Experimental: as §2
P2Y-receptor assays. Intact mesenteric bed vessels were precontracted with noradrenaline (200 μM). […] A resting period between each ATP injection was allowed to return to baseline, as described above. Blood vessel reactivity was assessed by a bolus injection of 3 nmol of NaNP. Response of the endothelium layer was confirmed by injection of NK-1 (100 pmol).

rat astrocytes = details: cited from earlier work
NTPDase [2] = biological target: T1, NTPDase; assay: NTPDase inhibition, ATP as substrate (Dixon plots); format: biochemical, bovine
Experimental: as §1, with “Isolation of particulate fractions. […] Briefly, bovine spleens were cut in small pieces and homogenized (15-20%) with a Polytron in Tris-saline buffer supplemented with SBTI and PMSF as protease inhibitors. After filtration with cheesecloth and centrifugation at 600 g the supernatant is centrifuged at 22,000 g for 90 min, and the resulting pellet is suspended in bicarbonate buffer and loaded on a sucrose cushion (40%) and centrifuged for two hours at 100,000 g. The fraction floating on the cushion is harvested in five volumes of bicarbonate buffer. […] NTPDase” for “NTPDase”, “(62). […]” for “(62).”

Compound: Nc1ncnc2c1nc(Br)n2[C@@H]1O[C@H](COP(=O)(O)OP(=O)(O)OP(=O)(O)O)[C@@H](O)[C@H]1O [8-Br-ATP, reference compound]
hydrolysis by NTPDase / resistance to hydrolysis (NTPDase [1]): a level of hydrolysis

Compound: CCCCOc1nc2c(N)ncnc2n1[C@@H]1O[C@H](COP(=O)(O)OP(=O)(O)OP(=O)(O)O)[C@@H](O)[C@H]1O [compound 8, 8-BuO-ATP]
hydrolysis by NTPDase / resistance to hydrolysis (NTPDase [1]): a level of hydrolysis

Compound: [Star^9,Met(O2)^11]SP [NK-1, reference compound]
vascular response (vasodilation) in denuded mesentery (P2X-purinoceptor; 100 pmol, vessels precontracted with 200 μM noradrenaline): significant response

Compound: CCCCNc1nc2c(N)ncnc2n1[C@@H]1O[C@H](COP(=O)(O)OP(=O)(O)OP(=O)(O)O)[C@@H](O)[C@H]1O [compound 7, 8-BuNH-ATP]
hydrolysis by NTPDase / resistance to hydrolysis (NTPDase [1]): a level of hydrolysis

More lines, main results first:

hydrolysis by NTPDase / resistance to hydrolysis (NTPDase [1]): a level of hydrolysis
Compound: CCSc1nc2c(N)ncnc2n1[C@@H]1O[C@H](COP(=O)(O)OP(=O)(O)OP(=O)(O)O)[C@@H](O)[C@H]1O [6c, 8-(Thioethyl)-adenosine 5′-triphosphate]

P2X-R effect: variation of perfusion pressure (P2X-purinoceptor): does not interact
effect on vasodilatory response to ATP (P2Y-R) (P2Y-purinoceptor): does not interact
Compound: CCCCSc1nc2c(N)ncnc2n1C1OC(COP(=O)(O)OP(=O)(O)OP(=O)(O)O)C(O)C1O (centres unmarked) [6e, 8-BuS-ATP]
agonism at P2Y1 receptor (P2Y1 receptor): poor agonist
P2X-R effect: variation of perfusion pressure (P2X-purinoceptor; listed as 8-BuS-ATP): not able to initiate any P2X-R effect; also recorded: No variations of perfusion pressure
effect on vasodilatory response to ATP (P2Y-R) (P2Y-purinoceptor; listed as 8-BuS-ATP): unmodified; also recorded: No significant difference
effect on [Ca2+]i level (rat astrocytes): no effect

potency / affinity as NTPDase inhibitor, in words (NTPDase [2]): good inhibitors
Compound: Nc1ncnc2c1nc(SC1CCCCCC1)n2C1OC(COP(=O)(O)OP(=O)(O)OP(=O)(O)O)C(O)C1O (centres unmarked) [6a, 8-(Thiocycloheptyl)-adenosine 5′-triphosphate]
type of NTPDase inhibition (NTPDase [2]; Lineweaver-Burk / Dixon representation): mixed type inhibitors; also recorded: mixed types of inhibition
hydrolysis by NTPDase / resistance to hydrolysis (NTPDase [1]): more resistant to hydrolysis; also recorded: resistant to hydrolysis
